Structures are written as SMILES. Residues, ends and D or L forms follow the SMILES beside them.

The subject of assay [1] is patients with remote complications of craniocerebral injury. Put plainly: Clinical trial in patients with remote complications of craniocerebral injury (proof test, EEG α-index, subjective indices). In kind it is in vivo, human. The method, then: The trial was conducted on 35 patients with remote complications of craniocerebral injury. They were divided into 3 groups: a control one (10 patients—standard treatment), a group under study (15 patients—standard treatment+1 μg of L-Ala-L-Glu-L-Asp-L-Pro tetrapeptide intramuscularly, daily for 10 days) and a comparison group (10 patients—standard treatment+Cerebrolysin). Remoteness of the suffered craniocerebral injury in the patients constituted 1 to 10 years. Decompensation of the posttraumatic process occurred in all the patients and was manifested in liquorodynamic disorder, neurocirculatory dystonia, cerebrofocal and psychopathologic syndromes.
Effect of the treatment with L-Ala-L-Glu-L-Asp-L-Pro tetrapeptide on the patients' attention was assessed by the proof test before and after the treatment. Significant increase in the number of reviewed symbols and decreased number of mistakes was noted, which indicated enhanced attention and raised stability of attention promoted by the tetrapeptide action (Table 5).
To assess the influence of L-Ala-L-Glu-L-Asp-L-Pro tetrapeptide on the cerebral bioelectric activity, a visual EEG (electroencephalography) test was carried out with its distribution on types and calculation of α-index before and after the treatment. EEG test was selectively performed in the patients from different groups showing most notable signs of disorder.
Before the treatment patients pathologic (III, IV and V) types of EEG prevailed in all the groups. The III-rd EEG type was characterised by the presence of so-called “non-dominant” curve, alongside with a low amplitude rate (no higher than 30–35 μV), irregular or even absent α-activity. The IV-th EEG type was marked by an extremely emphasised rhythm regularity and blurred zonal differences. The V-th EEG type was represented with an irregular slow activity (amplitude exceeding 35 μV), sharp waves and paroxysmal discharges.

The test system of a further assay is rats. The experiment in a line: Toxic effects of neurotropic agents (apomorphine, haloperidol, nicotine, caffeine), spontaneous motional activity. The format is in vivo. The method, then: Investigated was the action of L-Ala-L-Glu-L-Asp-L-Pro tetrapeptide on the toxic effects of neurotropic agents of various pharmacological groups.
In an hour after an intramuscular injection of saline (control) or L-Ala-L-Glu-L-Asp-L-Pro tetrapeptide (5 μg/kg) the rats were intraperitoneally administered toxic doses of different neuropharmacological agents (apomorphine, haloperidol, nicotine and caffeine). Thereby, the parameters of vertical (anxiety) and horizontal (locomotor activity) spontaneous motional activity were registered.

For assay [2], the system named is mice subject to ethanol-induced amnestic impact. Put plainly: CRPA in mice subject to ethanol-induced amnestic impact. In kind it is in vivo. The method, then:
(§1) Nootropic activity of L-Ala-L-Glu-L-Asp-L-Pro tetrapeptide was studied with the application of the conditioned reflex of passive avoidance (CRPA) in the intact animals and under the conditions of amnestic impacts (electroconvulsive treatment and ethanol intoxication).
(§2) The experiments were carried out on male mice weighing 20 to 24 g. For each animal the period of stay in dark and lighted chamber departments was registered during 2 min. before the training. […] The animals were trained by means of applying an electric pain stimulus in the preferred dark department, which lasted until the animal left this department. L-Ala-L-Glu-L-Asp-L-Pro tetrapeptide was introduced intraperitoneally 60 min. before the training. Testing was performed in 2 and 24 hours after the training. The period the animal stayed in the dark and lighted chamber departments and the number of animals not entering the dark department (“educated” animals) were recorded.
Ethanol was administered to the mice orally for 13 days in the form of a 10% solution. Training was held twice: on the 14th day of ethanol administration and in 24 hours after the first training. L-Ala-L-Glu-L-Asp-L-Pro tetrapeptide was administered intraperitoneally 30 min. before the training. Testing was performed in 2 and 24 hours after the first and second training sessions.

For another assay, the system named is cerebral cortex explants. The experiment in a line: Development of cerebral cortex explants (area index). In kind it is cell-based, chicken embryos. The method, then:
The experiments were carried out on 73 cerebral cortex fragments of 10–11 day old chicken embryos. Culture medium for the explants comprised 35% Eagle's solution, 25% foetal calf serum, 35% Henks' solution, 5% chicken embryonic extract. The medium was also added glucose (0.6%), insulin (0.5 IU/ml), penicillin (100 IU/ml), glutamine (2 mM). The cerebral cortex fragments were placed in the said medium and cultivated in Petri dishes in a thermostat at 36.7° C. for 2 days. L-Ala-L-Glu-L-Asp-L-Pro (SEQ ID NO:1) tetrapeptide and Cerebrolysin in concentrations 0.5, 1, 2, 20, 50, 100, 200, 400, 800, 1000 ng/ml were added into the experimental medium. Area index (AI) served as a criterion of biological activity and reflected the ratio of the entire explant area including the growth zone to the initial area of the cortex fragment. Student's t-criterion was applied to assess the significance of differences between the compared mean AI values. AI values were expressed percent. The control AI value was taken for 100%.
The growth zone of the control cortex explants included short axons, neuroglia cells migrating to the periphery and fibroblast-like cells.
Following series of experiments were performed to study the direct effect of the drugs on the cerebral cortex fragments.
Cerebrolysin in various concentrations was added to the culture medium of the cerebral cortex explants of the chicken embryos. […]

For another assay, the system named is intact white mice. The experiment in a line: Conditioned reflex of passive avoidance (CRPA) in intact mice. In kind it is in vivo. The note with it: for Trained animals (%): i.p. 60 min. before the training. The method, then: as §1, §2
The mark [3] stands for this setting: after treatment, added to conventional treatment.
Setting [4] is: 5 μg/kg intramuscular 1 hour before toxic dose of caffeine i.p.
The mark [5] stands for this setting: 1: in 2 hours after the training.
The mark [6] stands for this setting: 2: in 24 hours after the training.
Where [7] appears, read: 3: in 2 hours after the repeated training.
Where [8] appears, read: 4: in 24 hours after the repeated training.

Regarding `C[C@H](N)C(=O)N[C@@H](CCC(=O)O)C(=O)N[C@@H](CC(=O)O)C(=O)N1CCC[C@H]1C(=O)O` [L-Ala-L-Glu-L-Asp-L-Pro tetrapeptide, L-Alanyl-L-Glutamyl-L-Aspartyl-L-Proline] (H-AEDP-OH), in assay [1] (setting [3]), the “Number of mistakes (proof test)” value stood at 6.3 ± 1.1, the “Reviewed symbols (proof test)” value came to 2519.6 ± 105.3 and the “α-index (EEG)” value was 47.9 ± 3.1. Besides, the “cases with improvement of subjective indices (memory, mental agility, headaches, emotional evenness, will activity, recovery after a night repose)” value in assay [1] (before vs after treatment, 1 μg intramuscularly daily for 10 days) was found to be 71%. Moreover, the “effect on apomorphine toxic effects (anxiety, locomotor activity)” value with rats (5 μg/kg intramuscular 1 hour before toxic dose of apomorphine i.p.) was “diminished anxiety and locomotor activity”. Moreover, in the assay with rats (setting [4]), the “effect on caffeine-induced anxiety” value was “lowered caffeine-induced anxiety” and the “effect on locomotor activity after caffeine” value is “did not affect locomotor activity”. In addition, the “effect on haloperidol toxic effects (anxiety, locomotor activity)” value with rats (5 μg/kg intramuscular 1 hour before toxic dose of haloperidol i.p.) was “increased anxiety and locomotor activity”. In the assay on rats (5 μg/kg intramuscular 1 hour before toxic dose of nicotine i.p.), the “effect on nicotine toxic effects (anxiety)” value was “decreased the influence of nicotine on the animals' anxiety”. In assay [2] (setting [5]), the “Total period of stay in the dark chamber” value worked out at 47.8 ± 5.7 s and the “Trained animals (%)” value worked out at 13%. In addition, in assay [2] (setting [6]), the “Total period of stay in the dark chamber” value turned out to be 41.6 ± 5.8 s and the “Trained animals (%)” value was 31%. Moreover, in assay [2] (setting [7]), the “Total period of stay in the dark chamber” value amounted to 13.7 ± 5.7 s and the “Trained animals (%)” value amounted to 77%. Besides, in assay [2] (setting [8]), the “Total period of stay in the dark chamber” value came out at 7.6 ± 5.7 s and the “Trained animals (%)” value amounted to 86%. The “increase in the explant area index (AI) in comparison with control” value with cerebral cortex explants (20 ng/ml) stood at 40±7%. For the same molecule, the “concentration stimulating cultivated cortical fragments” value in the assay with cerebral cortex explants (effective concentration) is 20 ng/mL. Moreover, in the assay with intact white mice (2 hours after training), the “Total period of stay in the dark chamber during 2 min.” value was determined as 11.4 ± 5.2 s and the “Trained animals (%)” value came to 86%. In the assay with intact white mice (24 hours after training), the “Total period of stay in the dark chamber during 2 min.” value was 26.6 ± 5.9 s and the “Trained animals (%)” value is 68%.

Source of the values: US7189701B1, “Tetrapeptide stimulating functional activity of neurons pharmacological agent based thereon and method of use thereof” (Sankt-Petersburgskaya Obschestvennaya Organizatsiya …, priority 1999, dated 2007).
